# Measurements as given in patent US9040240B2, “Arsenic assay using ELISA” (UNIVERSITE DE LORRAINE, priority 2011, dated 2015).
# B1: ArsRFlagN-6His protein: recombinant E. coli ArsR regulator protein with N-terminal Flag peptide and polyhistidine tail (protein)
# chain: MDYKDDDDKGSFLLPIQLFKILADETRLGIVLLLSELGELCVCDLCTALDQSQPKISRHLALLRESGLLLDRKQGKWVHYRLSPHIPAWAAKIIDEAWRCEQEKVQAIVRNLARQNCSGDSKNISSHHHHHH
# modifications: ArsRFlagN-6His protein
# notes: recombinant E. coli ArsR regulator protein with N-terminal Flag peptide and polyhistidine tail
# Legend:
# [1] = system: human; conditions: ingestion; cited from earlier work
# [2] = target: T1, ArsRFlagN-6His protein (SEQ ID NO. 22) bound to Pars2Lbio/Pars2R DNA fragment (Escherichia coli, UniProt P37309); experiment: ELISA arsenic assay: ArsRFlagN-6His protein remaining bound to Pars2Lbio/Pars2R DNA fragment on streptavidin microplate, luminescence (CDP*); assay type: binding; conditions: 60 min 25° C.
# T1 construct: made in house; host or cells: Escherichia coli C43(DE3) pLysS, vector pET28b(+)
# T1 sequence (P37309 with tags, fused parts or gaps): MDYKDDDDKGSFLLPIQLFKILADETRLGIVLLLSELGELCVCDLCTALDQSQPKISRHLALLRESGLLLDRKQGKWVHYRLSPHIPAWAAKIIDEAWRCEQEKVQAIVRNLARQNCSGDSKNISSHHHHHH
# Description: In this example, the used DNA fragment containing the binding site of the ArsRFlagN-6His protein (SEQ ID NO. 22) is composed of a fragment of 41 biotinylated bases in position 5′ (SEQ ID NO. 25, named “Pars2Lbio”) hybridized to a further DNA fragment with 33 bases (SEQ ID NO 26, named “Pars2R”). The sequences Pars2Lbio and Pars2R were obtained by chemical synthesis (Eurofins MWG Operon, Ebersberg, Germany).
# The biotinylated oligonucleotide (“Pars2Lbio”) was used at a concentration of 1 to 10 nM. The complementary oligonucleotide (“Pars2R”) was added in excess to enhance formation of the double strand. It was diluted in PBST buffer (between 1 and 10 nM, ideally 5, for the biotinylated oligonucleotide; between 4 and 40 nM, ideally 20, for the complementary oligonucleotide). The mixture was heated for one minute at 65° C. to eliminate any secondary structures that could have been formed by each oligonucleotide.
# A “NUNC Immobilizer (trademark) Streptavidin” microplate (Nunc Streptavidin Microplate, Dominique Dutscher (ref. 056212), Brumath, France) with 96 wells with a useful volume of 100 μl each and whose surface is functionalized with streptavidin, was used. The wells in the microplate were washed three times using of 300 μl of PBST solution.
# The DNA solution was then distributed in the microplate wells (100 μl per well). The microplate was placed at 25° C. for one hour to enable binding of the DNA fragments thanks to the biotin-streptavidin affinity.
# (§1) The unbound DNA was eliminated by three successive washes using 300 μl of PBST per well.
# 100 μl of PBSTLE solution were added in the microplate wells. The microplate was incubated for 60 minutes at 25° C. to enable non-specific binding of the milk proteins on the bottom and the walls of the well. This step limits non-specific binding of the ArsRFlagN-6His protein (SEQ ID NO. 22) and the conjugated anti-Flag antibodies (Ref. A9469, Sigma Aldrich, Saint-Quentin Fallavier, France). The unbound proteins were eliminated by three successive washes of the well using 300 μl of PBST buffer.
# A solution of ArsRFlagN-6His protein (SEQ ID NO. 22) at 1 μg/ml was prepared in PBST buffer. 100 μl of this solution were added in each of the assay wells. The microplate was incubated for 60 minutes at 25° C., to enable the ArsRFlagN-6His proteins to bind with the DNA in the wells.
# (§2) The unbound proteins were eliminated by three successive washes using 300 μl of PBST per well.
# The DNA fragment defined in example 6 and containing the ArsR protein binding site was bound to a support in the same way as presented in example 6 above.
# A solution containing the ArsRFlagN-6His protein (SEQ ID NO. 22) was added according to the protocol presented in example 7 above, to enable the protein to bind with the DNA.
# 5 dilutions of arsenic solution, at 0 μg/L, 2 μg/L, 3 μg/L, 4 μg/L, and 5 μg/L respectively, were prepared in PBS to provide a control sample range. 100 μl of each of these dilutions were added respectively in a microplate well.
# The microplate was incubated for 60 minutes at 25° C., to enable the arsenic to bind with the ArsRFlagN-6His proteins (SEQ ID NO. 22).
# The unbound ArsRFlagN-6His proteins (SEQ ID NO. 22) were eliminated by three successive washed using 300 μl of PBST per well.
# 100 μl of a solution of anti-Flag antibody (Ref. A9469, Sigma Aldrich, Saint-Quentin Fallavier, France), conjugated with alkaline phosphatase, were added in each wells. The antibody was previously diluted in PBST in compliance with the supplier's recommendations (dilution factor 1/500). The microplate was incubated for 60 minutes at 25° C. to enable the antibody to bind with the ArsRFlagN-6His proteins.
# The unbound anti-Flag antibodies were eliminated by three successive washes using 300 μl of PBST per well.
# A CDP* solution at 0.25 mM was prepared in buffer 1. 100 μl of CDP* solution were placed in the different assay wells. The light emitted was immediately measured using a luminometer (LumiStar, BMG Lab Technologies).
# [3] = target: T2, ArsRFlagN protein (SEQ ID NO. 9) bound to Opars1 DNA fragment (Escherichia coli, UniProt P37309); experiment: ELISA arsenic assay: ArsRFlagN protein remaining bound to Opars1 DNA fragment on streptavidin microplate, luminescence (CDP*); assay type: binding, Escherichia coli K12 strain MG1655; conditions: 60 min 25° C.
# T2 construct: made in house; host or cells: Escherichia coli M15[pREP4] with plasmid pQEarsRFlagN (pQE70)
# T2 sequence (P37309 with tags, fused parts or gaps): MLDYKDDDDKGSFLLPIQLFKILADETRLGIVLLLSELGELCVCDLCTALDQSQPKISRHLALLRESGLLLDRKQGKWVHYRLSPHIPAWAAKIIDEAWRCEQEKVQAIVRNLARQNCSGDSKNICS
# Description: Different dilutions of arsenic solution to be assayed are added (4), the arsenic binds to the ArsR protein (5) that is separated from its site. These proteins are eliminated by washing. Only the ArsR proteins that have not bound arsenic remain attached to the DNA (6).
# A specific antibody of the Flag sequence is added (7). That antibody binds the Flag sequence of the ArsR protein bound to the DNA. The antibody is coupled with an enzyme, alkaline phosphatase for example. Any antibodies not bound are eliminated by washing.
# A substrate of the enzyme is added in the wells. Light is emitted when the substrate is cleaved by the enzyme (8). […] The quantity of arsenic contained in the sample is obtained by comparing the results with a standard curve.
# In this example, the used DNA fragment containing the binding site of the ArsR protein is composed of 254 base pairs (SEQ ID NO. 1, called “Opars1” herein). Opars1 sequence has been obtained by PCR (DNA polymerase chain reaction) amplification using the primers Opars1L (SEQ ID NO. 2) and Opars1R (SEQ ID NO. 3). The chromosomal DNA of the Escherichia coli K12 bacteria strain MG1655 (ATCC 47076) was used as a template for the PCR amplification. Biotin was added on the nucleotide at position 5′ during synthesis of the Opars1L primer. Biotinylated Opars1 sequences, that is to say sequences with a biotin in position 5′, were thus obtained.
# A “NUNC Immobilizer (trademark) Streptavidin” microplate (Nunc Streptavidin Microplate, Dominique Dutscher (ref. 056212), Brumath, France) with 96 wells with a useful volume of 100 μl each and whose surface is functionalized with streptavidin, was used. The wells of this microplate were washed three times using 300 μl of PBST solution.
# A solution containing Opars1 DNA fragments was diluted in PBS solution to obtain a DNA concentration of 0.2 μM. 100 μl of that solution were placed in each well of the “NUNC Immobilizer (trademark) Streptavidin” microplate. The microplate was incubated for 60 minutes at 25° C., to enable binding of the DNA in the wells.
# as §1
# The ArsR protein of sequence SEQ ID NO. 4 corresponds to the protein that regulates the Ars operon of Escherichia coli K12 strain MG1655. The arsR gene of sequence SEQ ID NO. 5 coding that protein was amplified from the chromosomal DNA of that strain using the primers arsRR (SEQ ID NO. 6) and arsRL (SEQ ID NO. 7), and cloned in expression vector pQE70 (Qiagen) according to the protocol described in the document “The QiaExpressionist: A handbook for high-level expression and purification of 6×His-tagged proteins. June 2003. Fifth ed., Qiagen” [12]. A Flag sequence (SEQ ID NO. 10) was inserted in the N-terminal region of the ArsR protein and named “ArsRFlagN” (SEQ ID NO. 9). The Flag sequence is recognized by anti-Flag antibodies (Ref. A9469, Sigma Aldrich, Saint-Quentin Fallavier, France). This addition will allow detecting and assaying the ArsR protein more efficiently.
# The 200 μg of ArsRFlagN proteins produced were diluted to 1/100 in PBST buffer. 100 μl of that solution were added in each of the assay wells. The microplate was incubated for 60 minutes at 25° C., to enable the attachment of the ArsRFlagN proteins on the DNA in the wells. The amount of ArsRFlagN proteins added per well was estimated at about 0.4 μg.
# as §2
# A DNA fragment containing the ArsR protein binding site was attached to a support in the same way as that set out in example 2 above.
# A solution containing the ArsR protein was added according to the protocol presented in example 3 above, to enable the protein to bind with the DNA.
# 6 dilutions of arsenic solution, at 0.375 μg/L, 0.750 μg/L, 1.875 μg/L, 7.500 μg/L, 18.750 μg/L and 37.500 μg/L respectively, were prepared in PBS to provide a standard range. […]
# [4] = Storage stability of purified ArsRFlagN-6His protein; assay type: physicochemical
# Description: The ArsRFlagN-6His protein (SEQ ID NO. 22) was purified by affinity chromatography (IMAC). An Ni-NTA column was balanced with PBS buffer+10 mM of imidazole. The clear lysate was deposited on the column. The buffer was eluted by gravity. The column was firstly washed using PBS buffer+10 mM of imidazole (10 column volumes) and secondly using PBS buffer+20 mM of imidazole. The ArsR protein was eluted using an imidazole gradient in PBS buffer (PBS buffer with increasing concentrations of imidazole: 30 to 400 mM). The fractions collected were analysed (SDS-PAGE gel). Fractions that contained the greatest quantity of protein were stored at 4° C. (3 ml of PBS buffer, imidazole 300 mM, pH 7.5). ArsR protein concentration was of 1 mg/ml. The protein is stable for 15 days at 4° C. It can be stored for several weeks at lower temperatures (−20 and −80° C.) in the presence of a cryoprotector (glycerol at 50%, volume/volume).
molecule,measurement,setting,value
[AsH3] [arsenic],amount of arsenic ingested causing acute intoxication,[1],1 to 2 mg/kg/day
arsenite [AsIII],Luminescence value (L),[2]; AsIII 0.027 μM (2 μg/L),"4,710"
same,logL,[2]; AsIII 0.027 μM (2 μg/L),3.6730
same,Luminescence value (L),[2]; AsIII 0.040 μM (3 μg/L),"4,457"
same,logL,[2]; AsIII 0.040 μM (3 μg/L),3.6490
same,Luminescence value (L),[2]; AsIII 0.053 μM (4 μg/L),"4,061"
same,logL,[2]; AsIII 0.053 μM (4 μg/L),3.6086
same,Luminescence value (L),[2]; AsIII 0.067 μM (5 μg/L),"3,906"
same,logL,[2]; AsIII 0.067 μM (5 μg/L),3.5917
same,Luminescence value (L),[3]; AsIII 0.005 μM (0.375 μg/L),"6,426"
same,logL,[3]; AsIII 0.005 μM (0.375 μg/L),3.81
same,Luminescence value (L),[3]; AsIII 0.01 μM (0.750 μg/L),"5,808"
same,logL,[3]; AsIII 0.01 μM (0.750 μg/L),3.76
same,Luminescence value (L),[3]; AsIII 0.025 μM (1.875 μg/L),"5,023"
same,logL,[3]; AsIII 0.025 μM (1.875 μg/L),3.70
same,Luminescence value (L),[3]; AsIII 0.100 μM (7.500 μg/L),"4,422"
same,logL,[3]; AsIII 0.100 μM (7.500 μg/L),3.65
same,Luminescence value (L),[3]; AsIII 0.250 μM (18.750 μg/L),"3,776"
same,logL,[3]; AsIII 0.250 μM (18.750 μg/L),3.58
same,Luminescence value (L),[3]; AsIII 0.500 μM (37.500 μg/L),"2,831"
same,logL,[3]; AsIII 0.500 μM (37.500 μg/L),3.45
B1,time the protein is stable,"[4]; 4° C., PBS buffer, imidazole 300 mM, pH 7.5, 1 mg/ml",15 days
same,time the protein can be stored,"[4]; −20 and −80° C., in the presence of glycerol at 50% (volume/volume)",several weeks
